No end group written: not given here.
How the values were obtained:
[1] = test system: IL-1β-induced adhesion of THP-1 to HMEC-1 cells; assay: Monocyte binding assay, IL-1β-induced THP-1 adhesion to HMEC-1; format: cell-based, human; conditions: various concentrations, 1 h pretreatment, then 20 ng/ml IL-1β 18 h; three independent experiments (Figure S4)
Method: (§1) Human micro-vascular endothelial cells-1 (HMEC-1, from American Type Culture Collection Manassas, USA) was cultured in MCDB 131 medium (Sigma, USA) with 15% fetal bovine serum (FBS; Sigma, USA). The medium was supplemented with 1% L-glutamine, 500 µg/ml streptomycin (Biowest, USA), 500 units/ml penicillin (Biowest, USA), 1 μg/ml hydrocortisone (Sigma, USA) and 10 ng/ml Epidermal Growth Factor (ProSpec, USA). The human acute monocytic leukemia cells (THP-1 cells) obtained from the Bioresource Collection and Research Center (Hsinchu, Taiwan) were cultivated in the RPMI-1640 medium (Invitrogen, USA) with 10% FBS. THP-1 were differentiated to macrophage by […] Phorbol 12-myristate 13-acetate (PMA; Sigma, USA) for 24 hours before peptides treatment.
(§2) To perform the test of monocyte adherence to endothelial cells monolayers, the HMEC-1 cell monolayers were cultivated on 24-well plates under serum-starvation condition prior to the monocyte binding assay. The peptides were added to the HMEC-1 cells for one hour prior to the activation by 20 ng/ml TNF-α (Sigma, USA), IL-1β (GOLDBIO, USA) and IL-6 (GOLDBIO, USA) for 18 hours. […] The adhered monocytes were detected and photographed (five images per well) by fluorescent microscopy and the amount of stuck THP-1 cells were counted by the software AlphaImager 2200 (Alpha Innotech, USA).

[2] = test system: white blood cell infiltration in the peritoneal cavity, BABL/c mice; assay: Thioglycollate-induced acute peritonitis model; format: in vivo, mouse; conditions: counts at 24 h
Method: The animal experiment was used 8- to 10-week-old male BABL/c mice to be the animal model. These mice were purchased from the National Laboratory Animal Breeding and Research Center, Taipei. The mice were housed in a temperature-controlled, light-cycled facility. Peritonitis was induced by an intraperitoneal injection of 4% (w/v) thioglycollate in 1 ml of sterile saline (Sigma–Aldrich, USA). Treatment with saline or peptides (5 mg/kg) was performed 4 h after the administration of thioglycollate by intravenous injection. At 24 h after thioglycollate injection, mice were killed by exposure to CO2, and 5 ml of HBSS was injected into the peritoneal cavity. Cells were obtained by aspirating peritoneal lavage. Differential cell counts were determined using a Hematology Analyzer (KX-21N; Sysmex, USA).

[3] = test system: TNF-α mRNA expression in HMEC-1 cells; assay: qPCR of cytokine-induced TNF-α mRNA in HMEC-1; format: cell-based, human; conditions: qPCR relative to GAPDH
Method: as §1
(§3) Cells were grown to confluence in 6-cm^2 culture plates. Peptides were incubated with TNF-α (20 ng/ml) for 1 h and then treated the cells for 4 h. […] An aliquot (5 µg) of purified RNA was reverse transcribed into first-strand complementary DNA (cDNA) with a 2720 Thermal Cycler (Applied Biosystems, Grand Island, NY, USA), 200 U/μl M-MLV reverse-transcriptase (Invitrogen) and […] oligo(dT)-adapter primers (Invitrogen) in a 20 μl reaction mixture. […] Quantitation of gene expression was conducted relative to GAPDH expression levels.

[4] = test system: IL-6-induced adhesion of THP-1 to HMEC-1 cells; assay: Monocyte binding assay, IL-6-induced THP-1 adhesion to HMEC-1; format: cell-based, human; conditions: various concentrations, 1 h pretreatment, then 20 ng/ml IL-6 18 h; three independent experiments (Figure S4)
Method: as §1, §2

[5] = test system: TNF-α-induced adhesion of THP-1 to HMEC-1 cells; assay: Monocyte binding assay, TNF-α-induced THP-1 adhesion to HMEC-1; format: cell-based, human; conditions: various concentrations, 1 h pretreatment, then 20 ng/ml TNF-α 18 h; three independent experiments (Fig. 4D, Figure S4)
Method: as §1, §2

[6] = test system: TNF-α secretion in THP-1 cells; assay: ELISA of IL-1β-induced TNF-α secretion in THP-1; format: cell-based, human
Excerpt: In addition, the decline in cytokine–receptor interactions might suppress cytokine mRNA expression and cytokine production in endothelial cells and monocytes. Treatment with KCF18 suppressed TNF-α mRNA expression following cytokines TNF-α, IL-1β and IL-6 stimulation (Fig. 6). To assess the efficacy of KCF18, we performed the RT-qPCR in THP-1 and HMEC-1 cells and ELISA assay for detecting TNF-α secretion including a TNF-α blocking antibody (R&D systems, USA)[57]–[59] as an additional condition in their experiments. […] We further analyze whether the KCF18 could suppress IL-1β induced TNF-α or TNF-α induced IL-1β expressions by ELISA assay (Supporting Figure S7). […] Since TNF-α blocking antibody captures the TNF-α in the conditioned medium, it may interfere the detection of TNF-α by ELISA (Supporting Figure S7). In summary, indeed, KCF18 expresses the ability to reduce cytokines induced TNF-α mRNA and protein expression. […] We also assessed the ability of KCF18 to inhibit TNF-α-mediated p65 nuclear translocation and endothelial ICAM-1 expression (Supporting Figure S8). […]
Figure S7: Peptide KCF18 and TNF-a antagonist antibody affect the protein expression of cytokine s-induced TNF-α an d I L-1b in TH P-1 cells. TNF-α and IL-1b secretion levels induced by (A) IL-1b and (B) TNF-α in THP-1 were determined using ELISA assays. […]

[7] = test system: TNF-α mRNA expression in THP-1 cells; assay: qPCR of cytokine-induced TNF-α mRNA in THP-1; format: cell-based, human; conditions: qPCR relative to GAPDH; TNF-α blocking antibody 1 μg/ml, peptide 500 nM; three independent experiments (Figure S6A)
Method: as §1, §3

HMEC-1 cells = assay: Cell cytotoxic assay (WST-1); format: cell-based, human; conditions: WST-1, 24 and 48 hours, 0.5 μM to 5 μM peptide (Figure S5)
Method: as §1
To assess whether the peptide KCF18 is toxic to the endothelial cells, 1 × 10^4 cells were placed into 96-well micro-plates and incubated for 2 hours for adherence. After adhesion, the medium with various concentrations of peptides (0.5 μM to 5 μM) were added to the wells. After 24 and 48 hours, the HMEC-1 cells were washed with Hank’s balanced salt solution and the survivals of HMEC-1 were detected by WST-1 assay kit (Roche, USA). The experiment was assessed in quadruplicate and repeated three times.

IL-6 = molecular target: T1, IL-6 (Homo sapiens, UniProt P05231); assay: SPR binding to immobilized IL-6 (Biacore T200); conditions: CM5 chip, IL-6 immobilized (approximately 2000 RU), single cycle, 2, 10, 25, 50, 100 μM peptide, 10 μl/min, 25 °C, monovalent binding model, read-out: equilibrium dissociation KD
T1 construct: purchased GOLDBIO.COM, USA 1110-06
T1 sequence (P05231 30-212): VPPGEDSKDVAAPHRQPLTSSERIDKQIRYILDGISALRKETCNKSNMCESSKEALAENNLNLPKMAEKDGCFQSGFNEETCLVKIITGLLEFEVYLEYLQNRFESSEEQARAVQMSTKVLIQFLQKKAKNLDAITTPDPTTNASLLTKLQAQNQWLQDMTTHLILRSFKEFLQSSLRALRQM
Method: The recombinant proteins of TNF-α (catalog^#1130-01), IL-1β (catalog^#1110-01B), and IL-6 (catalog^#1110-06) were purchased from the GOLDBIO.COM, USA.
The peptide KCF18 predicted from molecular docking and MM/PBSA binding free energy calculations were synthesized to confirm whether the peptide can bind to the pro-inflammatory cytokines by using SPR measurements. A Biacore T200 workstation (GE Healthcare, USA) was used for SPR detection. These cytokines (250 μg/ml TNF-α and 400 μg/ml IL-6) were diluted into 10 mM sodium acetate buffer at pH 4.0 and immobilized onto a CM5 sensor chip using amine coupling (EDC-NHS) for 210 secs at a flow rate of 10 μl/min. Approximately 5000 and 2000 response units (RU) of cytokines TNF-α and IL-6 were immobilized on the sensor chip, respectively. The flow channel-1 also treated the EDC-NHS as a reference to reduce the non-specific binding between dextran and peptides. […] The complexes were allowed to associate for 180 secs and then to dissociate for 90 secs. Surfaces were regenerated with an injection of 2 mM MgCl2 at a flow rate of 30 µl/min for 30 secs. A monovalent binding model was used to generate and fit the equilibrium binding curves for each peptide to determine the KD of the binding of peptide KCF18 with the pro-inflammatory cytokines.

[8] = molecular target: T2, tumor necrosis factor-α (TNF-α), recombinant (UniProt P01375 77-233); assay: SPR; Biacore T200; cytokine (about 5000 RU TNF-α, about 2000 RU IL-6) amine-coupled to a CM5 chip; peptide flowed over, single cycle kinetics, KCF18 at 2, 10, 25, 50 and 100 μM, 10 μl/min, 25 °C; steady-state binding isotherm fitted with a monovalent binding model; conditions: both partners purified
T2 construct: TNF-α, bought recombinant protein; The bought product is probably the soluble mature human form (surmise); Amine-coupled to a CM5 chip for SPR; source: bought: GOLDBIO.COM, USA (catalog #1130-01)
T2 sequence (P01375 77-233): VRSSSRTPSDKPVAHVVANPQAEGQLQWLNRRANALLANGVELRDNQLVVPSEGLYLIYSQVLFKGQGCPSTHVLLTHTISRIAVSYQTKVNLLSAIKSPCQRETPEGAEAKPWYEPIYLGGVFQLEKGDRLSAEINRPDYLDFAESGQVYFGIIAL

[9] = molecular target: T3, interleukin-6 (IL-6), recombinant (UniProt P05231 30-212); assay: as above; conditions: both partners purified
T3 construct: IL-6, bought recombinant protein; The simulations used human IL-6 (PDB 2IL6 with a modelled N-terminus); The bought product is probably mature human IL-6 (surmise); Amine-coupled to a CM5 chip for SPR; source: bought: GOLDBIO.COM, USA (catalog #1110-06)

CPLNGSTVYGHLRHCLSCSGTMVKF [CF25, a random peptide with 25 amino acids, negative control]
effect on IL-1β-induced monocyte binding to HMEC-1 (in words) [1]: could not repress cytokine-increased monocyte binding to HMEC-1 cells | total white blood cell infiltration in the peritoneal cavity (in words) ([2]; 5 mg/kg i.v. 4 h after i.p. 4% thioglycollate, mean ± SEM, n = 5 KCF18, n = 7 CF25, n = 6 control, *P < 0.05 vs control (Fig. 7)): had no potential anti-inflammatory effect | TNF-α-induced TNF-α mRNA expression in HMEC-1 (in words) ([3]; peptide incubated with TNF-α (20 ng/ml) 1 h, cells treated 4 h, three independent experiments (Fig. 6A)): had no inhibitory effect on TNF-α-induced TNF-α mRNA expression | effect on IL-6-induced monocyte binding to HMEC-1 (in words) [4]: could not repress cytokine-increased monocyte binding to HMEC-1 cells | effect on TNF-α-induced monocyte binding to HMEC-1 (in words) [5]: could not repress cytokine-increased monocyte binding to HMEC-1 cells

IL-1β: recombinant IL-1β (GOLDBIO), used as stimulus [reference compound]
induction of TNF-α secretion in THP-1 ([6]; 20 ng/ml IL-1β as stimulus): 2 fold

KCAKEMFAQKLPYSAVYF [mKCF18, mutant peptide of KCF18]
WBC infiltration, comparison of mKCF18 with KCF18 (in words) ([2]; i.v. 4 h after i.p. thioglycollate, n = 3 for each group (Figure S9)): worse than KCF18 peptide | IL-1β-induced TNF-α expression in THP-1 (in words) ([6]; 20 ng/ml IL-1β, pretreatment with peptide, relative to cell lysate concentration, three independent experiments (Figure S7A)): could not inhibit IL-1β induced TNF-α expression | TNF-α-induced TNF-α mRNA expression in HMEC-1, antibody comparison (in words) ([3]; TNF-α blocking antibody 1 μg/ml, peptide 500 nM, three independent experiments (Figure S6B)): had no inhibitory effect on TNF-α induced TNF-α mRNA expression in both cells | TNF-α-induced TNF-α mRNA expression in THP-1, antibody comparison (in words) [7]: had no inhibitory effect on TNF-α induced TNF-α mRNA expression in both cells

KCRKEMFKQKLPYSTVYF [KCF18]
HMEC-1 cell viability vs control cells (in words) (HMEC-1 cells): no important discrepancy was noticed in cell viability among control cells and peptide-treated cells | Kd (IL-6): 111 µM

B1: composite peptide KCF18 (peptide)
peptide: KCRKEMFKQKLPYSTVYF
notes: designed 18-residue composite peptide: KCRKEM from TNFR1, FKQKLP from IL-1R, YSTVYF from the IL-6 receptor; also called designed peptide KCF18; source: synthetic peptide (GeneMark, GMbiolab Co., Ltd., Taiwan; solid phase)
Kd [8]: 60.9 µM | Kd [9]: 112 µM

Source: article PMC6381106 (Scientific Reports, 2019)
